In patent publication US6790644B2, “1,3-dicarbonyl-dioxygenase—a new c-c-bond cleaving enzyme” (Biocatalytics, Inc., priority 2001, dated 2004):
Where two headings read alike, the source gives them in different places. Blank lines part the entries; values can stand above or below the compound they belong to.

Experiments:
[1] = target: T1, 1,3-dicarbonyl-dioxygenase (Acinetobacter johnsonii, UniProt Q8GNT2); assay: Determination of enzyme-activity and stability versus pH and additives; type: physicochemical
Procedure: Activity measurements were performed with the oxygen-electrode, with KH2PO4-buffers adjusted to various pH-values [5.0-9.0]. For stability measurements, the enzyme was diluted ten-fold and incubated at various pH-values [5.0-9.0]. The activity was measured periodically with the UV-activity-assay.

[2] = target: T1, 1,3-dicarbonyl-dioxygenase; assay: Substrate spectrum / apparent kinetic constants of purified 1,3-dicarbonyl-dioxygenase (UV assay and oxygen electrode); details: for KO2: polarographic, estimated from rate of oxygen depletion, substrate 0.5-1 mM; for O2/Substrate: oxygen consumed per substrate, oxygen electrode
Procedure: (§1) The reaction rates were determined by using the microcomputer regression program provided with the spectrophotometer (Winspec) based on the first ten absorbance measurements made at 5-s intervals.
Substrates were dissolved at a concentration of 0.001-1 mM in KH2PO4-buffer, 50 mM, pH 7.5 using a 10 mM stock solution. Duplicate absorption-measurements of 20 different dilutions were performed at 25° C. The molar absorption coefficients were calculated by linear regression.
(§2) Oxygen consumption during the enzyme reaction was measured with an oxygen-electrode-cell (Digital Oxygen System Model 10, Rank Brothers Ltd., Cambridge, England) as described previously (Beechey, R. B. and Ribbons, D. W. (1971). ‘Methods in Microbiology’.V. 6B. Edited by J. R. Norris and D. W. Ribbons. Academic press, London. ‘Oxygen electrode measurements’ (Chapter II) pp. 29-52.). The reaction mixture contained air-saturated KH2PO4-buffer, 50 mM, pH 7.5 at 25° C. (thermostat). The oxygen-electrode was calibrated by the sodium-sulfite-method. Varying concentrations of substrate (0.01-0.3 mM) were added and the resulting decrease of oxygen was determined.
Assuming the Michaelis-Menten-equation, Vmax and Ks values were calculated by non-linear curve-fit by the program microcal-origin. KO2 was estimated by polarographic methods, adding non limiting amounts of substrate (0.5-1 mM) and graphically determining the oxygen concentration at the point of half of the maximum activity. Ks-values were similarly confirmed by polarographic methods, by stepwise addition of substrate to a final concentration of 20-150 μM.

[3] = target: T2, recombinant 1,3-dicarbonyl-dioxygenase (expressed in E.coli) (Acinetobacter johnsonii, UniProt Q8GNT2); assay: Relative activity of recombinant protein at non-limiting substrate concentrations; type: biochemical
T2 construct: made in house; host or cells: E. coli XL1 Blue, plasmid pMS470 (tac promoter, NdeI/HindIII)
Procedure: Expression constructs were expressed in E.coli XL1 Blue (Stratagene, La Jolla, Calif.), which was grown to an OD of 1 at 30° C. on rotatory shakers in erlenmeyer flasks, then induced with IPTG (0.3 mM) and incubated for another 5 hours.
as §1, §2

[4] = target: T1, 1,3-dicarbonyl-dioxygenase; assay: Products of various substrates determined by HPLC (cleavage stoichiometry, partially purified enzyme); type: biochemical; details: 25° C., one hour; for Substrate % (remaining): remaining substrate calculated; for Acetate % / Methylglyoxal %: oxygen saturated buffer
Text: The products of the enzyme reaction were identified directly from the reaction mixture by in situ ^1H-NMR-spectroscopy (Pokorny, D., L. Brecker, M. Pogorevc, H. Griengl, W. Steiner, T. Kappe, and D. W. Ribbons. 1999. Proton-Nuclear Magnetic Resonance Analyses of the Substrate Specificity of a β-Ketolase from Pseudomonas putida, Acetopyruvate Hydrolase. J. Bacteriol. 181: 5051-5059.). Therefore a 200 MHz narrow bore magnet (Varian Gemini™ 2000, Varian, Inc., Palo Alto, Calif.) and a 5 mm broadband probe head were used. The NMR tube was rotated at 20 rps. For a lock a D2O vortex capillary was added to avoid ^1H/D exchange reactions. The overwhelming water-signal was suppressed with a presaturation method (Guéron, M., P. Plateau and M. Decorps. 1991. Solvent signal suppression in NMR. Prog. NMR Spectrosc. 23: 135-209. Hore, J. P. 1989. Solvent suppression. p. 64. In N. J. Oppenheimer and J. T. James (eds.), Methods Enzymol. 176. Academic Press, Inc., San Diego.). The following parameters were adjusted for a ^1H-frequency of 200 MHz: presaturation-duration of 1.0 s, ^1H-pulse-angle of 90, an acquisition-time of 2.0 s and a relaxation delay of 1.5 s. 64 Scans were accumulated and after a zero filling to 32 k datapoints the free induction decay was Fourier transformed. The water signal (4.70 ppm) was used as a reference. For standard reaction analytics HPLC-measurements were performed (Hewlett-Packard, column: Aminex-HPX-87H, UV- and RI-detector, eluent Sulfuric acid 0.005 M).
The cleavage-stoichiometry of several non-symmetrical substrates was also investigated, in order to be able to determine the regiospecificity of the enzyme. This was done by conversion of the respective substrate with partially purified enzyme. Methylglyoxal and acetate formed were measured by HPLC. Remaining substrate was calculated.

[5] = target: wild-type 1,3-dicarbonyl-dioxygenase (Acinetobacter johnsonii, UniProt Q8GNT2); assay: Relative activity of wild-type enzyme at non-limiting substrate concentrations; type: biochemical
Procedure: as §1, §2

[6] = target: T1, 1,3-dicarbonyl-dioxygenase; type: biochemical
[7] = target: T1, 1,3-dicarbonyl-dioxygenase; type: biochemical; remark: listed apart in the source
Procedure: The freshly prepared solutions of the respecitive inhibitors in buffer were added to partially purified enzyme, which then was incubated at room temperature.
The freshly prepared solutions of the respective inhibitors in buffer were added to partially purified enzyme, which then was incubated at room temperature. […] For reactivation, purified enzyme, which had previously been inactivated by incubation with o-phenantroline (1 mM), was incubated with Tris-buffer (20 mM, pH 7.5) containing the respective metal-salts (5 mM).

[8] = apparent, relative to acetylacetone = 1.00, purified wild-type enzyme
[9] = inhibitor 2.5 mM, 2 min incubation, 0.5 mM acetylacetone, pH 7.5
[10] = inhibitor 2.5 mM, 10 min incubation, 0.5 mM acetylacetone, pH 7.5

T1 sequence (Q8GNT2 whole entry): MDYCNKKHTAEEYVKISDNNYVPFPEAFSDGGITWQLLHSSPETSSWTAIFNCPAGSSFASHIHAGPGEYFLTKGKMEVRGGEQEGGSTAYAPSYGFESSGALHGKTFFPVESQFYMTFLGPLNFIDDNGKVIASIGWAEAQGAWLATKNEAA
T2 sequence (Q8GNT2 whole entry): as above
wild-type 1,3-dicarbonyl-dioxygenase, sequence (Q8GNT2 whole entry): as above

Compound: O[C@H](CS)[C@H](O)CS (racemic) [dithiothreitol]
- effect of potential stabilizing agent on enzyme stability [1]: did not enhance stability

Compound: O=C1CCCC(=O)C1 [1,3-Cyclohexanedione]
- Vmaxrel. [2]: 0.00
- acceptance as substrate (in words) [2]: not accepted as a substrate

Compound: CC(=O)CC(=O)c1ccccc1 [1-Phenyl-1,3-butandion, 1-Phenyl-1,3-butanedione]
- Vmax clone [3]: 0.08
- Vmaxrel. [2, 8]: 0.15
- KO2 ([2]; apparent): 100 ± 15 µM
- O2/Substrate [2]: 1.0
- Methylglyoxal/Acetate ([4]; substrate 1.6 mM): 9
- Substrate % (remaining) ([4]; substrate 1.6 mM): 24%
- Acetate % ([4]; substrate 1.6 mM): 8%
- Methylglyoxal % ([4]; substrate 1.6 mM): 68%
- Vmax wild-type [5]: 0.05

Compound: CC(=O)CC(=O)C(=O)O [2,4-Dioxo-pentanoic acid]
- Vmaxrel. [2]: 0.00
- acceptance as substrate (in words) [2]: not cleaved

Compound: CCOC(=O)C(=O)CC(C)=O [2,4-Dioxo-pentanoic-acid-ethyl-ester]
- Vmax clone [3]: 0.08
- Vmaxrel. [2, 8]: 0.09
- KO2 ([2]; apparent): 91 ± 15 µM
- O2/Substrate [2]: 1.0
- Vmax wild-type [5]: 0.10

Compound: CCCCCC(=O)CC(C)=O [2,4-Nonanedione]
- Vmax clone [3]: 0.25
- Vmaxrel. [2, 8]: 0.56
- KO2 ([2]; apparent): 112 ± 15 µM
- O2/Substrate [2]: 1.0
- Methylglyoxal/Acetate ([4]; substrate 4 mM): 1.4
- Substrate % (remaining) ([4]; substrate 4 mM): 17%
- Acetate % ([4]; substrate 4 mM): 35%
- Methylglyoxal % ([4]; substrate 4 mM): 48%
- Vmax wild-type [5]: 0.30

Compound: CCCCC(=O)CC(C)=O [2,4-Octandion, 2,4-Octanedione]
- Vmax clone [3]: 0.60
- Vmaxrel. [2, 8]: 0.58
- KO2 ([2]; apparent): 85 ± 15 µM
- O2/Substrate [2]: 1.0
- Methylglyoxal/Acetate ([4]; substrate 4 mM): 0.5
- Substrate % (remaining) ([4]; substrate 4 mM): 18%
- Acetate % ([4]; substrate 4 mM): 55%
- Methylglyoxal % ([4]; substrate 4 mM): 27%
- Vmax wild-type [5]: 0.50

Compound: CC(=O)C1CCCCC1=O (centres unmarked) [2-Acetocyclohexanone]
- Vmax clone [3]: 0.48
- acceptance as substrate (in words) [2]: quite good reaction rated
- Vmaxrel. [2, 8]: 0.58
- KO2 ([2]; apparent): 21 ± 5 µM
- O2/Substrate [2]: 0.9
- Vmax wild-type [5]: 0.56

Compound: CC(=O)C1CCCC1=O (centres unmarked) [2-Acetocyclopentanone]
- Vmax clone [3]: 0.43
- acceptance as substrate (in words) [2]: quite good reaction rated
- Vmaxrel. [2, 8]: 0.52
- KO2 ([2]; apparent): 15 ± 5 µM
- O2/Substrate [2]: 1.0
- Acetate % ([4]; substrate 4 mM): 90%
- Vmax wild-type [5]: 0.31

Compound: CC(=O)C(C)(C)C(C)=O [3,3-Dimethylpentanedione]
- Vmaxrel. [2]: 0.00

Compound: CC(=O)C(C)C(C)=O [3-Methylpentandion, 3-Methylpentanedione]
- Vmax clone [3]: 0.85
- acceptance as substrate (in words) [2]: quite good reaction rated
- Vmaxrel. [2, 8]: 0.25
- KO2 ([2]; apparent): 40 ± 8 µM
- O2/Substrate [2]: 1.0
- Substrate % (remaining) ([4]; substrate 4 mM): 18%
- Acetate % ([4]; substrate 4 mM): 82%
- Vmax wild-type [5]: 0.83

Compound: COC(C)=CC(C)=O [4-Methoxy-3-penten-2-one]
- Vmaxrel. [2]: 0.00
- acceptance as substrate (in words) [2]: not accepted

Compound: CC(=O)CC(=O)C(C)(C)C [5,5-Dimethylhexan-2,4-dion, 5,5-Dimethylhexane-2,4-dione]
- Vmax clone [3]: 0.08
- acceptance as substrate (in words) [2]: cleaved at significantly lower rates
- Vmaxrel. [2, 8]: 0.25
- KO2 ([2]; apparent): 70 ± 15 µM
- O2/Substrate [2]: 0.9
- Methylglyoxal/Acetate ([4]; substrate 4 mM): 3.3
- Substrate % (remaining) ([4]; substrate 4 mM): 9%
- Acetate % ([4]; substrate 4 mM): 21%
- Methylglyoxal % ([4]; substrate 4 mM): 70%
- Vmax wild-type [5]: 0.05

Compound: CC(=O)c1ccccc1O [(2-Hydroxyphenyl-)-ethan-1-one]
- Vmaxrel. [2]: 0.00

Compound: [Cl][Cu][Cl] [CuCl2]
- Relative activity [%] 2 min (reactivation) [6]: 0%
- Relative activity [%] 10 min (reactivation) [6]: 0%

- Relative activity [%] 2 min [7, 9]: 88%
- Relative activity [%] 10 min [7, 10]: 85%
Compound: O=C(O)c1cc(SSc2ccc([N+](=O)[O-])c(C(=O)O)c2)ccc1[N+](=O)[O-] [DTNB, ‘5’-Dithio-bis-(2-dinitrobenzoic acid)]

- Relative activity [%] 2 min [7, 9]: 18%
- Relative activity [%] 10 min [7, 10]: 12%
Compound: CCOC(=O)OC(=O)OCC [Diethyl-pyrocarbonate]

Compound: CCN=C=NCCCN(C)C [EDAC, 1-Ethyl-3-(3-dimethylaminopropyl)-carbodimide]
- Relative activity [%] 2 min [7, 9]: 100%
- Relative activity [%] 10 min [7, 10]: 95%

Compound: O=C(O)CN(CCN(CC(=O)O)CC(=O)O)CC(=O)O [EDTA]
- Relative activity [%] 2 min [7]: 85%
- Relative activity [%] 10 min [7]: 36%

Compound: [Cl][Fe]([Cl])[Cl] [FeCl3]
- Relative activity [%] 2 min (reactivation) [6]: 0%
- Relative activity [%] 10 min (reactivation) [6]: 0%

Compound: O=S(=O)([O-])[O-].[Fe+2] [FeSO4]
- Relative activity [%] 2 min (reactivation) [6]: 14%
- Relative activity [%] 10 min (reactivation) [6]: 33%
- restoration of enzyme-activity (in words) [6]: partially restores the enzyme-activity

Compound: OO [H2O2]
- Relative activity [%] 2 min [7]: 0%
- Relative activity [%] 10 min [7]: 0%
- inactivation of the enzyme (in words) [7]: complete inactivation

Compound: O=C(O)CI [Iodo-acetic-acid]
- Relative activity [%] 2 min ([7]; pH 7.5): 100%
- Relative activity [%] 10 min ([7]; pH 7.5): 72%

Compound: O=S(=O)([O-])[O-].[Mn+2] [MnSO4]
- Relative activity [%] 2 min (reactivation) [6]: 0%
- Relative activity [%] 10 min (reactivation) [6]: 0%

Compound: [N-]=[N+]=[N-].[Na+] [NaN3]
- Relative activity [%] 2 min ([7]; pH 7.5): 54%
- Relative activity [%] 10 min ([7]; pH 7.5): 38%

Compound: [Cl][Ni][Cl] [NiCl2]
- Relative activity [%] 2 min (reactivation) [6]: 0%
- Relative activity [%] 10 min (reactivation) [6]: 0%

- Relative activity [%] 2 min [7, 9]: 62%
- Relative activity [%] 10 min [7, 10]: 23%
Compound: O=C1CCC(=O)O1 [Succinic anhydride]

Compound: O=S(=O)([O-])[O-].[Zn+2] [ZnSO4]
- Relative activity [%] 2 min (reactivation) [6]: 0%
- Relative activity [%] 10 min (reactivation) [6]: 0%

Compound: Oc1ccccc1O [catechol]
- acceptance as substrate (in words) [2]: does not accept

Compound: Cc1cccc(O)c1O [methylcatechol]
- acceptance as substrate (in words) [2]: does not accept

Compound: c1cnc2c(c1)ccc1cccnc12 [o-Phenantroline]
- Relative activity [%] 2 min [7]: 38%
- Relative activity [%] 10 min [7]: 10%

Compound: O=C(O)c1cc[c]([Hg][OH])cc1 [p-Hydroxymercurybenzoic acid]
- Relative activity [%] 2 min ([7]; pH 7.5): 56%
- Relative activity [%] 10 min ([7]; pH 7.5): 45%

Compound: CoCl2
- Relative activity [%] 2 min (reactivation) [6]: 0%
- Relative activity [%] 10 min (reactivation) [6]: 0%
